Assay results reported in patent US6037334A, “Phosphonates, process for preparing the same and medicaments” (Roche Diagnostics GmbH, priority 1996, dated 2000).
Where a name gives a salt, the structure may show the parent alone.

Columns and labels:
[1] = biological target: human factor Xa (Homo sapiens, UniProt P00742); experiment: biochemical
Protocol: The kinetic measurements were carried out at pH=7.5 and 25° C. in 0.1 M phosphate buffer that contained 0.2 M sodium chloride and 0.5% polyethylene glycol 6000 (see below for preparation) in polystyrene semi-microcuvettes in a total volume of 1 ml. The reactions were started by addition of enzyme to pre-incubated solutions that contained either dimethyldisulfoxide (control) or solutions of the test substance in DMSO (inhibitor stock solutions: 10 mM in DMSO). The increase in absorbance at 405 nm due to the release of p-nitroaniline from the substrate was monitored over a time period of 12 minutes.
The inhibition constants Ki were determined as follows. […] KM and Vmax were determined from a measurement series (constant inhibitor concentration, variable substrate concentrations) by a non-linear fit to the equation [formula]
The Ki value is obtained by non-linear regression from the entire series of measurements with 16 sets of data (measurements at 4 different substrate concentrations and each with 4 different inhibitor concentrations) from the equation [formula] in which VMax denotes the maximum rate in the absence of an inhibitor, KM denotes the Michaelis constant and [S] the substrate concentration. […]

[2] = system: citrate plasma; experiment: Activated Partial Thromboplastin Time (APTT); assay type: biochemical, human; conditions: difference to the control, 37° C.
Protocol: (§1) 9 parts of fresh blood from healthy donors was mixed with one part of sodium citrate solution (0.11 mol/l) and it was centrifuged for 10 minutes at room temperature at ca. 3000 r.p.m. The plasma was removed by pipette and can be stored at room temperature for ca. 8 hours.
Activated Partial Thromboplastin Time (APTT)
100 μl citrate plasma and 100 μl APTT reagent (Stago Diagnostics/Boehringer Mannheim GmbH; contains cephalin lyophilisate with a microcrystalline kieselguhr activator) are incubated for 3 minutes at 37° C. together with 10 μl dimethylsulfoxide (DMSO) or 10 μl of a solution of the active substance in DMSO in a ball coagulometer (KC10 from the Amelung Company). On addition of 100 μl 0.025 M calcium chloride solution a stopwatch is started and the time at which coagulation starts is determined. The APTT is ca. 28-35 seconds in the control measurements and is extended by the active substances. If no coagulation occurred in the measurements after 5 minutes the experiment was stopped (>300).
The measured APTT times in seconds are given in table 1 as a difference to the control. The concentrations of the active substances in the final volume were 100 μM (APTT 100), 10 μM (APTT 10), 1 μM (APTT 1), 0.1 μM (APTT 0.1).

[3] = system: horse thrombin; experiment: Thrombin Time; assay type: biochemical; conditions: 500 μM final; difference to the control; 37° C.; citrate plasma, ca. 3 U/ml horse thrombin
Protocol: as §1
200 μl citrate plasma is incubated for 2 minutes at 37° C. in a ball coagulometer (KC10 from the Amelung Company). 10 μl dimethylsulfoxide (DMSO) or a solution of the active substance in DMSO is added to 190 μl pre-heated thrombin reagent (Boehringer Mannheim GmbH; contains ca. 3 U/ml horse thrombin and 0.0125 M Ca^++). On addition of 200 μl of this solution to the plasma a stopwatch is started and the time at which coagulation starts is determined. The thrombin time is ca. 24 sec. in control measurements and is extended by the active substances. If no coagulation occurred in the measurements after 5 minutes the experiment was stopped (>300).
The measured thrombin times in seconds are given in table 1 as a difference to the control. The concentrations of the active substances in the final volume were 500 μM (TT 500).

Sequence of human factor Xa (P00742 235-488 limits assumed): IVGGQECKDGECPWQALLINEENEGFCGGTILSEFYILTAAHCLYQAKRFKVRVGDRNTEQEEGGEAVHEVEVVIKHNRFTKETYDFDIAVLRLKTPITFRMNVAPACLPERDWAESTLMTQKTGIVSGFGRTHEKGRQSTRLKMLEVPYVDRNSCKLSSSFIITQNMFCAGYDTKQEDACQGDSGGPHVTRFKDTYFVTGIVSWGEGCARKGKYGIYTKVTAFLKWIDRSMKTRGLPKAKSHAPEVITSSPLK
Sequence of human factor Xa (P00742 41-179 partner limits assumed): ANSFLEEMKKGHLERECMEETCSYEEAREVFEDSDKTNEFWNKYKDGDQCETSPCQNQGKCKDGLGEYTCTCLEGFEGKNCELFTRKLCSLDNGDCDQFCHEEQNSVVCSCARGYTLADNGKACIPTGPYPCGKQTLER

CCOP(=O)(OCC)C(Oc1ccc2ccc(C(=N)N)cc2c1)c1ccc(OC2CCN(C(C)=N)CC2)cc1 (stereo not drawn) [Example 1, (7-Carbamimidoyl-naphthalen-2-yloxy)-[{4-[1-(1-imino-ethyl)-piperidin-4-yloxy]-phenyl}-methyl)-phosphonic acid diethyl ester-dihydrochloride]
Ki [1]: 2 nM
APTT 0.1 ([2]; 0.1 μM final): 8 s
APTT 1 ([2]; 1 μM final): 45 s
APTT 10 ([2]; 10 μM final, >300 = no coagulation after 5 minutes): > 300 s
APTT 100 ([2]; 100 μM final, >300 = no coagulation after 5 minutes): > 300 s
TT 500 [3]: 49 s
